Measurements as given in ChEMBL document CHEMBL1122119.

Columns and labels:
[1] = target: T1, Adenylate cyclase (Rattus norvegicus) (UniProt D4A3N4+P26770+Q04400+P26769+Q03343+P40146+Q8CFM9+P21932); assay: Ability (250 uM) to stimulate dopamine sensitive adenylate cyclase from rat corpus striatum in the presence of excess ATP; format: functional
[2] = target: T1, Adenylate cyclase (Rattus norvegicus); assay: Ability (50 uM) to stimulate dopamine sensitive adenylate cyclase from rat corpus striatum in the presence of excess ATP; format: functional

Cyclase stimulation [2] [%] | Structure (SMILES) | Cyclase stimulation [1] [%]
 | CN1CCc2cc(O)cc3c2[C@@H]1Cc1ccc(O)c(O)c1-3 | 9
 | CN1CCc2cc(O)cc3c2[C@H]1Cc1ccc(O)c(O)c1-3 | 59
58 | NCCc1ccc(O)c(O)c1 | 
48 | CN1CCc2cccc3c2[C@H]1Cc1ccc(O)c(O)c1-3 | 
